According to patent EP2818472A1, “Imidazo[4,5-c]pyridine and pyrrolo[3,2-c]pyridine compounds as G-protein-coupled receptor kinase 5 (GRK5) modulators” (Max-Planck-Gesellschaft zur Förderung der Wissenschaften …, priority 2013, dated 2014):

System: beta-TC6 cells
Test: Insulin HTRF assay (relative activity Ar) in beta-TC6 cells
Format: cell-based, mouse
Conditions: Mus musculus, Beta-TC6, 4 h, insulin HTRF, supernatant of beta-TC6 cells, incubation with test compound at 37°C for 2, 3, 4h; read-out: Ar (relative activity)
Procedure, shortened: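 beta-TC6 cells (15k/well, seeded 24 or 48 h) washed, then exposed to compound in induction buffer (0.5% DMSO final) for 2, 3 or 4 h at 37°C.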

Structure (SMILES) | Emax [%]
COc1ccc(Nc2nccc3[nH]c(-c4ccc(C)cc4)nc23)cc1OC [Compound 378, N-(3,4-dimethoxyphenyl)-2-(p-tolyl)-1H-imidazo[4,5-c]pyridin-4-amine] | 50 to 100
COc1ccc(Nc2nccc3[nH]c(-c4ccc(C)cc4)nc23)cn1 [Compound 379, N-(6-methoxy-3-pyridyl)-2-(p-tolyl)-1H-imidazo[4,5-c]pyridin-4-amine] | 50 to 100
Cc1ccc(-c2nc3c(Nc4ccccc4)nccc3[nH]2)cc1 [Compound 380, N-phenyl-2-(p-tolyl)-1H-imidazo[4,5-c]pyridin-4-amine] | 30 to 50
CCN(CC)CCNC(=O)c1ccc(Nc2nccc3[nH]c(-c4ccc(C)cc4)nc23)cc1 [Compound 381, N-(2-diethylaminoethyl)-4-[[2-(p-tolyl)-1H-imidazo[4,5-c]pyridin-4-yl]amino]benzamide] | 50 to 100
COc1ccc(Nc2nccc3[nH]c(-c4ccc(C)cc4)nc23)cc1 [Compound 382, N-(4-methoxyphenyl)-2-(p-tolyl)-1H-imidazo[4,5-c]pyridin-4-amine] | 30 to 50
Cc1ccc(-c2nc3c(Nc4cccc(O)c4)nccc3[nH]2)cc1 [Compound 383, 3-[[2-(p-tolyl)-1H-imidazo[4,5-c]pyridin-4-yl]amino]phenol] | 50 to 100
Cc1ccc(-c2nc3c(Nc4cccc(NS(C)(=O)=O)c4)nccc3[nH]2)cc1 [Compound 384, N-[3-[[2-(p-tolyl)-1H-imidazo[4,5-c]pyridin-4-yl]amino]phenyl]methanesulfonamide] | 30 to 50
COCCNC(=O)c1cccc(-c2nc3c(Nc4cc(OC)c(OC)c(OC)c4)nccc3[nH]2)c1 [Compound 385, N-(2-methoxyethyl)-3-[4-(3,4,5-trimethoxyanilino)-1H-imidazo[4,5-c]pyridin-2-yl]benzamide] | > 100
COCCNC(=O)c1cccc(-c2nc3c(Nc4cccc(OC)c4)nccc3[nH]2)c1 [Compound 386, 3-[4-(3-methoxyanilino)-1H-imidazo[4,5-c]pyridin-2-yl]-N-(2-methoxyethyl)benzamide] | 50 to 100
COCCNC(=O)c1cccc(-c2nc3c(Nc4ccccc4)nccc3[nH]2)c1 [Compound 387, 3-(4-anilino-1H-imidazo[4,5-c]pyridin-2-yl)-N-(2-methoxyethyl)benzamide] | 30 to 50
COc1ccc(-c2nc3c(Nc4cc(OC)c(OC)c(OC)c4)nccc3[nH]2)cc1 [Compound 389, 2-(4-methoxyphenyl)-N-(3,4,5-trimethoxyphenyl)-1H-imidazo[4,5-c]pyridin-4-amine] | 50 to 100
COc1ccc(-c2nc3c(Nc4cccc(OC)c4)nccc3[nH]2)cc1 [Compound 390, N-(3-methoxyphenyl)-2-(4-methoxyphenyl)-1H-imidazo[4,5-c]pyridin-4-amine] | 30 to 50
COc1ccc(-c2nc3c(Nc4ccccc4)nccc3[nH]2)cc1 [Compound 393, 2-(4-methoxyphenyl)-N-phenyl-1H-imidazo[4,5-c]pyridin-4-amine] | 30 to 50
COc1ccc(-c2nc3c(NCCc4ccccn4)nccc3[nH]2)cc1 [Compound 394, 2-(4-methoxyphenyl)-N-[2-(2-pyridyl)ethyl]-1H-imidazo[4,5-c]pyridin-4-amine] | 30 to 50
COc1ccc(Nc2nccc3[nH]c(-c4ccc(OC)cc4)nc23)cc1 [Compound 395, N,2-bis(4-methoxyphenyl)-1H-imidazo[4,5-c]pyridin-4-amine] | 50 to 100
COc1ccc(-c2nc3c(N4CCN(C)CC4)nccc3[nH]2)cc1 [Compound 396, 2-(4-methoxyphenyl)-4-(4-methylpiperazin-1-yl)-1H-imidazo[4,5-c]pyridine] | 30 to 50
COc1ccc(-c2nc3c(Nc4cccc(O)c4)nccc3[nH]2)cc1 [Compound 397, 3-[[2-(4-methoxyphenyl)-1H-imidazo[4,5-c]pyridin-4-yl]amino]phenol] | 50 to 100
COc1ccc(-c2nc3c(Nc4ccc(OC)c(O)c4)nccc3[nH]2)cc1 [Compound 398, 2-methoxy-5-[[2-(4-methoxyphenyl)-1H-imidazo[4,5-c]pyridin-4-yl]amino]phenol] | > 100
COc1ccc(-c2nc3c(N4CCOCC4)nccc3[nH]2)cc1 [Compound 399, 4-[2-(4-methoxyphenyl)-1H-imidazo[4,5-c]pyridin-4-yl]morpholine] | 30 to 50
COc1ccc(-c2nc3c(NCC4CC4)nccc3[nH]2)cc1 [Compound 400, N-(cyclopropylmethyl)-2-(4-methoxyphenyl)-1H-imidazo[4,5-c]pyridin-4-amine] | 30 to 50
COCCCNc1nccc2[nH]c(-c3ccc(OC)cc3)nc12 [Compound 401, 2-(4-methoxyphenyl)-N-(3-methoxypropyl)-1H-imidazo[4,5-c]pyridin-4-amine] | 30 to 50
COc1cc(Nc2nccc3[nH]c(-c4cccc(F)c4)nc23)cc(OC)c1OC [Compound 402, 2-(3-fluorophenyl)-N-(3,4,5-trimethoxyphenyl)-1H-imidazo[4,5-c]pyridin-4-amine] | 30 to 50

Structure (SMILES) | Emax [%]
NC(=O)c1ccc(Nc2nccc3[nH]c(-c4cccc(F)c4)nc23)cc1 [Compound 403, 4-[[2-(3-fluorophenyl)-1H-imidazo[4,5-c]pyridin-4-yl]amino]benzamide] | 30 to 50
COc1ccc(Nc2nccc3[nH]c(-c4cccc(F)c4)nc23)cc1OC [Compound 404, N-(3,4-dimethoxyphenyl)-2-(3-fluorophenyl)-1H-imidazo[4,5-c]pyridin-4-amine] | > 100
COc1ccc(Nc2nccc3[nH]c(-c4cccc(F)c4)nc23)cn1 [Compound 405, 2-(3-fluorophenyl)-N-(6-methoxy-3-pyridyl)-1H-imidazo[4,5-c]pyridin-4-amine] | 30 to 50
Fc1cccc(-c2nc3c(NCCc4ccccn4)nccc3[nH]2)c1 [Compound 406, 2-(3-fluorophenyl)-N-[2-(2-pyridyl)ethyl]-1H-imidazo[4,5-c]pyridin-4-amine] | 50 to 100
COc1ccc(Nc2nccc3[nH]c(-c4cccc(F)c4)nc23)cc1 [Compound 407, 2-(3-fluorophenyl)-N-(4-methoxyphenyl)-1H-imidazo[4,5-c]pyridin-4-amine] | 50 to 100
Fc1cccc(-c2nc3c(Nc4cccc(Oc5ccccc5)c4)nccc3[nH]2)c1 [Compound 408, 2-(3-fluorophenyl)-N-(3-phenoxyphenyl)-1H-imidazo[4,5-c]pyridin-4-amine] | 0 to 30
COc1cc(Nc2nccc3[nH]c(-c4ccc5c(c4)OCCO5)nc23)cc(OC)c1OC [Compound 409, 2-(2,3-dihydro-1,4-benzodioxin-6-yl)-N-(3,4,5-trimethoxyphenyl)-1H-imidazo[4,5-c]pyridin-4-amine] | 50 to 100
COc1cccc(Nc2nccc3[nH]c(-c4ccc5c(c4)OCCO5)nc23)c1 [Compound 410, 2-(2,3-dihydro-1,4-benzodioxin-6-yl)-N-(3-methoxyphenyl)-1H-imidazo[4,5-c]pyridin-4-amine] | 30 to 50
COc1ccc(Nc2nccc3[nH]c(-c4ccc5c(c4)OCCO5)nc23)cc1OC [Compound 411, 2-(2,3-dihydro-1,4-benzodioxin-6-yl)-N-(3,4-dimethoxyphenyl)-1H-imidazo[4,5-c]pyridin-4-amine] | 50 to 100
c1ccc(Nc2nccc3[nH]c(-c4ccc5c(c4)OCCO5)nc23)cc1 [Compound 412, 2-(2,3-dihydro-1,4-benzodioxin-6-yl)-N-phenyl-1H-imidazo[4,5-c]pyridin-4-amine] | 30 to 50
CC(C)CNc1nccc2[nH]c(-c3ccc4c(c3)OCCO4)nc12 [Compound 413, 2-(2,3-dihydro-1,4-benzodioxin-6-yl)-N-isobutyl-1H-imidazo[4,5-c]pyridin-4-amine] | 30 to 50
COc1ccc(Nc2nccc3[nH]c(-c4ccc5c(c4)OCCO5)nc23)cc1 [Compound 414, 2-(2,3-dihydro-1,4-benzodioxin-6-yl)-N-(4-methoxyphenyl)-1H-imidazo[4,5-c]pyridin-4-amine] | 50 to 100
OCCNc1nccc2[nH]c(-c3ccc4c(c3)OCCO4)nc12 [Compound 416, 2-[[2-(2,3-dihydro-1,4-benzodioxin-6-yl)-1H-imidazo[4,5-c]pyridin-4-yl]amino]ethanol] | 30 to 50
CS(=O)(=O)c1cccc(Nc2nccc3[nH]c(-c4ccc5c(c4)OCCO5)nc23)c1 [Compound 417, 2-(2,3-dihydro-1,4-benzodioxin-6-yl)-N-(3-methylsulfonylphenyl)-1H-imidazo[4,5-c]pyridin-4-amine] | 30 to 50
Oc1cccc(Nc2nccc3[nH]c(-c4ccc5c(c4)OCCO5)nc23)c1 [Compound 418, 3-[[2-(2,3-dihydro-1,4-benzodioxin-6-yl)-1H-imidazo[4,5-c]pyridin-4-yl]amino]phenol] | 50 to 100
c1cc2[nH]c(-c3ccc4c(c3)OCCO4)nc2c(NCC2CC2)n1 [Compound 419, N-(cyclopropylmethyl)-2-(2,3-dihydro-1,4-benzodioxin-6-yl)-1H-imidazo[4,5-c]pyridin-4-amine] | 50 to 100
COCCCNc1nccc2[nH]c(-c3ccc4c(c3)OCCO4)nc12 [Compound 420, 2-(2,3-dihydro-1,4-benzodioxin-6-yl)-N-(3-methoxypropyl)-1H-imidazo[4,5-c]pyridin-4-amine] | 30 to 50
COc1cc(Nc2nccc3[nH]c(-c4ccncc4)nc23)cc(OC)c1OC [Compound 421, 2-(4-pyridyl)-N-(3,4,5-trimethoxyphenyl)-1H-imidazo[4,5-c]pyridin-4-amine] | 50 to 100
COc1cccc(Nc2nccc3[nH]c(-c4ccncc4)nc23)c1 [Compound 422, N-(3-methoxyphenyl)-2-(4-pyridyl)-1H-imidazo[4,5-c]pyridin-4-amine] | 30 to 50
COc1ccc(Nc2nccc3[nH]c(-c4ccncc4)nc23)cc1OC [Compound 423, N-(3,4-dimethoxyphenyl)-2-(4-pyridyl)-1H-imidazo[4,5-c]pyridin-4-amine] | > 100
Clc1cccc(Nc2nccc3[nH]c(-c4ccncc4)nc23)c1 [Compound 424, N-(3-chlorophenyl)-2-(4-pyridyl)-1H-imidazo[4,5-c]pyridin-4-amine] | 30 to 50
